Assay results reported in patent US6969590B2, “Use of a polypeptide for treatment of pruritus in animals” (Zengen, Inc., priority 2001, dated 2005).

What was measured:
C. albicans = test: Horse serum-induced germ tube formation of C. albicans; format: cell-based; conditions: 10^−6M, 60 minutes at 37° C.
Description: C. albicans from stationary phase cultures were washed twice with distilled water and suspended in HBSS to a final concentration of 2×10^6/ml. Hyphal growth was induced by addition of 10% inactivated horse serum (GIBCO/BRL, Great Britain) to yeast incubated for 45 minutes at 37° C. with continuous shaking. Horse serum was removed by washing cells twice with HBSS and incubation was continued for 60 minutes at 37° C. in the presence of α-MSH (1-13), α-MSH (6-13) or α-MSH (11-13) at a concentration of 10^−6M with continuous shaking. The percentage of filamentous cells was evaluated under a light microscope with the aid of hemocytometer. Experiments were run in triplicate and at least 200 cells were scored. Photomicrographs were taken with an MC100 camera attached to an Axioskop Zeiss microscope.

human neutrophils = test: C. albicans killing by human neutrophils; format: cell-based; conditions: 2 hours at 37° C., vs. medium
Description: Venous blood (20 ml) from healthy volunteers was anticoagulated with heparin. Neutrophils were isolated using dextran sedimentation and Ficoll-Hypaque (Sigma Chemical Co., St. Louis, Mi., USA) centrifugation. Erythrocytes were lysed via hypotonic shock. Neutrophils represented at least 97% of the cell suspension. Cell viability, estimated by trypan blue exclusion, was >98%. Neutrophils were suspended to a final concentration in HBSS. C. albicans (1×10^6) were opsonized with human AB serum in a shaking water bath for 30 minutes at 37° C. Organisms were then incubated with neutrophils in medium or in medium with α-MSH (1-13) or α-MSH (11-13) in concentrations of 10^−15 M to 10^−4 M in a shaking water bath for 2 hours at 37° C. After incubation, the culture tubes were placed on ice to stop growth and extracellular organisms were washed twice with centrifugation at 1000×g at 4° C. A 2.5% sodium desoxycholoate solution was added to obtain a suspension of 10^6 cells/ml. Two 1/100 serial dilutions in HBSS were made to obtain a final suspension of 100 cells/ml. Aliquots of 1 ml were dispensed on blood agar plates and incubated for 48 hours at 37° C. Colony forming units (CFUs) were counted at the end of the incubation period. Experiments were run in triplicate and repeated using blood from 5 different donors.

TNF-α = TNF-α production by activated N9 microglia; format: cell-based, murine; conditions: microglia stimulated with LPS+IFN-γ for 24 hr, micromolar concentrations
Description: (§1) The N9 clone of murine microglial cells was obtained by immortalization of embryonic brain cultures with the 3RV retrovirus carrying an activated v-myconcogene. N9 cells were cultured in T-75-cm^2 culture flasks (Corning, Cambridge, Mass.) and maintained at 37° C. in a humidified incubator under 5% CO2 atmosphere in RPMI 1640 supplemented with 2 mM L-glutamine, 50 U/mL penicillin G, 50 μg/mL streptomycin sulfate (GIBCO-BBL, Paisley, UK), and 10% heat-inactivated fetal bovine serum (FBS, Hyclone Lab, Inc., Logan, Utah) until experiments were performed. Cells were used between the first and the tenth passage.
(§2) Sub-confluent microglial cells were washed twice with phosphate-buffered saline (PBS) and incubated with trypsin 0.025% and ethylenediaminetetraacetate (EDTA) 0.02% without calcium and magnesium for 3 min. at 37° C. to detach the cells from the culture flask. Cells were then resuspended in medium and incubated in 24-well tissue-culture plates at a concentration of 2×10^5 cells/mL for 16 h in a humidified incubator (37° C., 5% CO2). Growth medium was removed and cell monolayers were stimulated with 10 ng/mL lipopolysaccharide (LPS, from Escherichia coli 055:B5, Sigma Chemical Co., St. Louis, Mo.) plus 1 U/ml, murine IFN-γ (Sigma). To test effects of melanocortin peptides, concentrations (1, 10, 25, 50 and 100 μM) of α-MSH (1-13), α-MSH (11-13), and ACTH (1-24) (Sigma) were dissolved in medium and added to wells 10 min before treatment with LPS+IFN-γ. […] Viability of cells was assessed by trypan blue exclusion for each experimental condition; it was consistently >98%. […]
TNF-α bioactivity was measured in supernatants of cell cultures by standard cytotoxicity assay using L929 cells and recombinant human TNF-α (Sigma) as standard. […] IL-6 was measured using a commercial murine enzyme-linked immunosorbent assay (ELISA: RPN 2714, Amersham, Little Chalfont, UK).
(§3) Effects of melanocortin peptides on cytokine and NO production were evaluated by repeated measures analysis of variance followed by Dunnet's test for specific comparisons. […]

NO2^− = test: Nitrite (NO) production by activated N9 microglia; format: cell-based, murine; conditions: microglia stimulated with LPS+IFN-γ for 24 hr, micromolar concentrations
Description: as §1, §2
NO is rapidly oxidized to nitrite (NO2) in culture medium, and nitrite concentration is an indicator of NO production. […] Samples were incubated at room temperature for 10 min and absorbency was measured at 540 nm with the use of a microplate reader. Nitrite concentrations were calculated using a sodium nitrite standard curve.
as §3

cAMP = cAMP accumulation in N9 cells; format: cell-based, murine; conditions: resting cells and cells incubated with LPS+IFN-γ
Description: cAMP accumulation in N9 cells was measured as previously described. Briefly, cells in six-well plates were co-incubated at 37° C. with (1) medium; (2) forskolin (100 μM); (3) LPS (10 ng/mL)+IFN-γ (1 U/mL); (4) α-MSH (1-13) or α-MSH (11-13) (1, 10, 50 μM); (5) LPS+IFN-γ and either α-MSN (1-13) or α-MSH (11-13) (10 μM). Reactions were stopped after 3 min by aspirating supernatants, immediately adding 1 mL ethanol at −20° C. and freezing. cAMP content in the ethanol-soluble fraction was measured using an enzyme immunoassay kit (Amersham).

TNF-α and iNOS mRNA = test: Northern blot of TNF-α and iNOS mRNA in activated microglia; format: cell-based, murine
Description: Total cellular RNA was extracted from 10^6 adherent microglial cells plated in six-well tissue culture plates (Corning). Electrophoresis of RNA samples (10 μg/lane) was performed in 1% agarose/2.2 M formaldehyde gels and the gels subsequently blotted onto nylon filters by capillary action and baked for 2 h before prehybridization. The cDNA fragments encoding murine TNF-α and mouse macrophage iNOS were ^32P-labeled using the Ready-To-Go DNA Labeling Kit (Pharmacia, Uppsala, Sweden) before hybridization of nylon filters and autoradiography. Blots were subsequently rehybridized with human glyceraldehyde-3-phosphate dehydrogenase (G-3-PDH) cDNA probe as an internal control (Clontech Laboratories, Inc., Palo Alto, Calif.).

With SYSMEHFRWGKPV [α-MSH (1-13)] the “reduction in the number of filamentous cells (inhibition of germination)” value (C. albicans) was 28-32%, the “killing of C. albicans by human neutrophils” value (human neutrophils) was “enhanced the killing” and the “reduction of production of TNF-α” value (TNF-α) was 43%. For the same sequence, the “reduction of production of NO2^−” value (NO2^−) was 42%, the cAMP accumulation (cAMP) was “increased cAMP accumlation” and the “mRNA for TNF-α and iNOS (Northern blot)” value (TNF-α and iNOS mRNA) was “inhibition of mRNA transaction for TNF-α and iNOS”.
